These results are taken from patent US9394284B2, “Compounds act at multiple prostaglandin receptors giving a general anti-inflammatory response” (Allergan, Inc., priority 2010, dated 2016).

Holding throughout (format): cell-based
Assay [1] addresses T1, human prostanoid FP receptor (Homo sapiens, UniProt P43088).
T1 construct: expressed in transfected cells
The assay can be described thus: FLIPR Ca2+ signaling antagonist assay, FP receptor stable cell line. As to conditions: HEK-293 EBNA stable cell line; standard agonist 17-phenyl-PGF2α; NA = inactive (no antagonism or Kb 10,000 nM); PAg, Ag not defined. As for the experimental part:
(§1) The above compounds were tested for PG antagonist activity as follows using human recombinant prostanoid receptor (DP1, EP1-4, FP, IP and TP) stable cell lines:
(§2) In order to measure the response of Gs and Gi coupled prostanoid receptors as a Ca^2+ signal, chimeric G protein cDNAs were used. Stable cell lines over-expressing human prostanoid DP1, EP1-4, FP, IP, and TP receptors were established as follows:
(§3) Briefly, human prostanoid DP1, EP2, and EP4 receptor cDNAs were co-transfected with chimeric Gqs cDNA containing a haemagglutanin (HA) epitope; human prostanoid EP3 receptors were co-transfected with chimeric Gqi-HA; human EP1, FP, IP, and TP receptor cDNAs were expressed with no exogenous G-proteins. Gqs and Gqi chimeric cDNAs (Molecular Devices, Sunnyvale, Calif., U.S.A.), as well as cDNAs of prostanoid receptors, were cloned into a pCEP4 vector with a hygromycin B selection marker. Transfection into HEK-293 EBNA (Epstein-Barr virus nuclear antigen) cells was achieved by the FuGENE 6 transfection Reagent (Roche Applied Science, Indianapolis, Ind., USA). Stable transfectants were selected according to hygromycin resistance. Because Gqs and Gqi contained an HA epitope, G-protein expression was detected by Western blotting analysis using anti-mouse HA monoclonal antibody and horseradish peroxidase (HRP)-conjugated secondary antibody, while functional expression of prostanoid receptors was detected by FLIPR screening (Matias et al., 2004). These stable cell lines were validated using previously published antagonists at 10 μM against serial dilutions of standard agonists by FLIPR functional assays for Ca^2+ Signaling (as described below).
(§4) Ca^2+ signaling studies were performed using a FLIPR TETRA system (Molecular Devices, Sunnyvale, Calif., USA) in the 384-format. This is a high-throughput instrument for cell-based assays to monitor Ca^2+ signaling associated with GPCRs and ion channels. Cells were seeded at a density of 5×10^4 cells/well in BioCoat poly-D-lysine coated, black wall, clear bottom 384-well plates (BD Biosciences, Franklin lakes, NJ, USA) and allowed to attach overnight in an incubator at 37° C. The cells were then washed twice with HBSS-HEPES buffer (Hanks' balanced salt solution without bicarbonate and phenol red, 20 mM HEPES, pH 7.4) using an ELx405 Select CW Microplate Washer (BioTek, Winooski, Vt., USA). After 60 min of dye-loading in the dark using the Ca^2+-sensitive dye Fluo-4AM (Invitrogen, Carlsbad, Calif., USA), at a final concentration of 2×10^−6M, the plates were washed 4 times with HBSS-HEPES buffer to remove excess dye and leaving 50 μl of buffer in each well. The plates were then placed in the FLIPR TETRA instrument and allowed to equilibrate at 37° C. AGN-211377 was added in a 25 μl volume to each well to give final concentrations of 0.1 μM, 0.3 μM, 1 μM, 3 μM, 10 μM, and 30 μM; or 0.067 μM, 0.1 μM, 0.2 μM, 0.3 μM, 0.67 μM, and 1 μM for cells over-expressing TP receptors. After 4.5 minutes, a 7-point serial dilution of the standard agonist for the corresponding receptor, in a 25 μl volume was injected at the final concentrations from 10^−11M to 10^−5M in 10-fold serial dilution increments for cells expressing human recombinant DP1, EP1, EP2, EP3, EP4, FP, and IP receptors. The dose range for the standard agonist for human recombinant TP receptors was from 10^−12 M to 10^−6 M. HBSS-HEPES buffer was used as the negative control for the standard agonists. Cells were excited with LED (light emitting diode) excitation at 470-495 nm and emission was measured through an emission filter at 515-575 nm. Assay plates were read for 3.5 minutes using the FLIPR^TETRA. The peak increase in fluorescence intensity was recorded for each well. On each plate, negative controls, dose response of positive controls, and co-treatments of antagonist-agonist for each dose were in triplicates.
(§5) Standard agonists were as follows: DP=BW 245C, EP1-EP4=PGE2, FP=17-phenyl-PGF2α, IP=Cicaprost, and TP=U-46619. […]

In assay [2] the target is T2, human prostanoid DP1 receptor (Homo sapiens, UniProt Q13258).
T2 construct: expressed in transfected cells
T2 sequence (Q13258 1-359): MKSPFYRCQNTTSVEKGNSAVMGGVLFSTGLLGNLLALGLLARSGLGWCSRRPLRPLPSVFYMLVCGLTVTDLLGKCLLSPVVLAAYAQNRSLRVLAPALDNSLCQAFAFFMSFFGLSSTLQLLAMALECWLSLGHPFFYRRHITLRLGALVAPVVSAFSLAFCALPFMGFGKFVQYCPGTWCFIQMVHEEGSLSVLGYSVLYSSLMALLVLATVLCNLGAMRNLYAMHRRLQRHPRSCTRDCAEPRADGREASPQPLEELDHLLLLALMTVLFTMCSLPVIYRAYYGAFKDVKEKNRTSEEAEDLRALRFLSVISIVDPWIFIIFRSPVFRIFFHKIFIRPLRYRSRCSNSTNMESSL
In words: FLIPR Ca2+ signaling antagonist assay, DP1 receptor stable cell line. As to conditions: HEK-293 EBNA stable cell line; standard agonist BW 245C; NA = inactive (no antagonism or Kb 10,000 nM); PAg, Ag not defined. As for the experimental part:
as §1, §2, §3, §4, §5

Assay [3] addresses T3, human prostanoid EP1 receptor (Homo sapiens, UniProt P34995).
T3 construct: expressed in transfected cells
T3 sequence (P34995 1-402): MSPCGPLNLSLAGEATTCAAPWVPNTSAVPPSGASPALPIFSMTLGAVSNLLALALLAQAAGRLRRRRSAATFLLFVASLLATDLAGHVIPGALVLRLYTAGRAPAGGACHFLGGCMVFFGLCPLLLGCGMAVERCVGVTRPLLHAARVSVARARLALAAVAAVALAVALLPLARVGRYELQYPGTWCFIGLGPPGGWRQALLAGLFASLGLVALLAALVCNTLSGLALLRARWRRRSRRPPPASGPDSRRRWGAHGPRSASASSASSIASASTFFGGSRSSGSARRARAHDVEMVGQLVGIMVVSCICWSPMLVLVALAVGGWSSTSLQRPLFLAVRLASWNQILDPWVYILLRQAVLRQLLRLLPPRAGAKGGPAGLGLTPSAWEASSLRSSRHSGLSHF
The assay can be described thus: FLIPR Ca2+ signaling antagonist assay, EP1 receptor stable cell line. As to conditions: HEK-293 EBNA stable cell line; standard agonist PGE2; NA = inactive (no antagonism or Kb 10,000 nM); PAg, Ag not defined. As for the experimental part: as §1, §2, §3, §4, §5

The target in assay [4] is T4, human prostanoid EP4 receptor (Homo sapiens, UniProt P35408).
T4 construct: expressed in transfected cells
T4 sequence (P35408 whole entry): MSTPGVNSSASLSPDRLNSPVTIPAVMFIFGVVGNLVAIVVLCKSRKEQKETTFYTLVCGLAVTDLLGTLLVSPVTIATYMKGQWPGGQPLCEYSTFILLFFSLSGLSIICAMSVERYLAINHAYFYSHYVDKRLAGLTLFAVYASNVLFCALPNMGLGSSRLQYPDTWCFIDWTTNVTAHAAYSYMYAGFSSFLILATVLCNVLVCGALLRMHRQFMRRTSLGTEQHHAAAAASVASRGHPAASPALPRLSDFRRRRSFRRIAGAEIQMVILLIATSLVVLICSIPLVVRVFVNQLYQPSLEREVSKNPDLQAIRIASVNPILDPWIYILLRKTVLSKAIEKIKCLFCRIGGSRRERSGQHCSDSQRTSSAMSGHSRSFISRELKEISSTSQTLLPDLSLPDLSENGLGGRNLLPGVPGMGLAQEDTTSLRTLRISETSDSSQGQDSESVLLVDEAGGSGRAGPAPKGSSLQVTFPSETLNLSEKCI
The assay can be described thus: FLIPR Ca2+ signaling antagonist assay, EP4 receptor stable cell line. The note with it: HEK-293 EBNA stable cell line; standard agonist PGE2; NA = inactive (no antagonism or Kb 10,000 nM); PAg, Ag not defined. As for the experimental part:
as §1, §2, §3, §4, §5

Assay [5] concerns the target T5, human prostanoid IP receptor (Homo sapiens, UniProt P43119).
T5 construct: expressed in transfected cells
In words: FLIPR Ca2+ signaling antagonist assay, IP receptor stable cell line. The note with it: HEK-293 EBNA stable cell line; standard agonist Cicaprost; NA = inactive (no antagonism or Kb 10,000 nM); PAg, Ag not defined. As for the experimental part: as §1, §2, §3, §4, §5

Assay [6] addresses T6, human prostanoid TP receptor (Homo sapiens, UniProt P21731).
T6 construct: expressed in transfected cells
T6 sequence (P21731 1-343): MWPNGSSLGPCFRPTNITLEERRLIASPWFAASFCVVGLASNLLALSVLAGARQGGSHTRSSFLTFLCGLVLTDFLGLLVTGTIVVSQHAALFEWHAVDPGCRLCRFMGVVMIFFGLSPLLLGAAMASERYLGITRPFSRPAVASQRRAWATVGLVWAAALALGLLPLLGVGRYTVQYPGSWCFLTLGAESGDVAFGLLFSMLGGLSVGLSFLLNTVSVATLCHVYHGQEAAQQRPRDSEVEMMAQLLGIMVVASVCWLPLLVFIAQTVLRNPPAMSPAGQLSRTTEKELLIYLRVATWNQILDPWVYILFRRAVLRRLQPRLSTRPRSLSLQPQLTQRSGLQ
In words: FLIPR Ca2+ signaling antagonist assay, TP receptor stable cell line. As to conditions: HEK-293 EBNA stable cell line; standard agonist U-46619; NA = inactive (no antagonism or Kb 10,000 nM); PAg, Ag not defined. As for the experimental part: as §1, §2, §3, §4, §5

As a reminder, the Kb is the affinity of an antagonist, worked out from how it opposes an agonist.

T5 sequence (P43119 whole entry): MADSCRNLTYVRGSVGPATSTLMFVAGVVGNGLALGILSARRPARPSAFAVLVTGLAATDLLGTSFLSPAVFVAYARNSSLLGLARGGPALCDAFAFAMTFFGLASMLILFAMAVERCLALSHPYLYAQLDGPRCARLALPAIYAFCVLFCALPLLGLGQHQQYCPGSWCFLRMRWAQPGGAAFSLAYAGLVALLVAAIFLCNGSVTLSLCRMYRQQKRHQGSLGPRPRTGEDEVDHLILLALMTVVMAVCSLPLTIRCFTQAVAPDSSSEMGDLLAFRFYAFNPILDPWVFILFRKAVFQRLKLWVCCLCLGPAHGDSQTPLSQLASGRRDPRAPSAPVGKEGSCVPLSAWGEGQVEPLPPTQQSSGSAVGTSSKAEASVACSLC
T1 sequence (P43088 whole entry): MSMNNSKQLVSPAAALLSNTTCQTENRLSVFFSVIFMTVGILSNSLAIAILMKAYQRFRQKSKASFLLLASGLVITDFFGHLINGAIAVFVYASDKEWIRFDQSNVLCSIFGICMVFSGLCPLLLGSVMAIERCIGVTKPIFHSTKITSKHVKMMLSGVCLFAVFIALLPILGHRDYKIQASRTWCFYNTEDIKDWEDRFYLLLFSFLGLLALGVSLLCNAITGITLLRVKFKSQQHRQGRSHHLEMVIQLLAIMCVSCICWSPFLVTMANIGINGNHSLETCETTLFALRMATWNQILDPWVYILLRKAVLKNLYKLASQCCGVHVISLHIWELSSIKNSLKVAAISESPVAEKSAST

As for `Cc1cc(CC(C)C(=O)O)nn1Cc1cc(Cl)ccc1OCC1CCCC1` (racemic) [Example 70, 3-{1-[5-Chloro-2-(2-cyclopentylmethoxy)-benzyl]-5-methyl-1H-pyrazol-3-yl}-2-methyl-propionic acid], the antagonist equilibrium constant (Kb) turned out to be 130 nM in assay [1]; 450 nM in assay [2]; 30 nM in assay [3]; 80 nM in assay [4]; 2 µM in assay [5]; 120 nM in assay [6].

Take `CCC(C)CCOc1ccc(Br)cc1Cn1nc(CCC(=O)O)cc1C` (stereo not shown) [Example 7, 3-[1-(5-Bromo-2-(3-methyl-pentyloxy)-benzyl)-5-methyl-1H-pyrazol-3-yl]-propionic acid]: the Kb in assay [1] was 90 nM; in assay [2], 490 nM; in assay [3] it was 90 nM; in assay [4], 600 nM; in assay [5], 3.5 µM; in assay [6], 2 nM.

Turning to `C/C=C(\C)COc1ccc(Br)cc1Cn1nc(CCC(=O)O)cc1C` [Example 9, 3-[1-(5-Bromo-2-((E)-2-methyl-but-2-enyloxy)-benzyl)-5-methyl-1H-pyrazol-3-yl]-propionic acid], the Kb in assay [1] was determined as 400 nM; in assay [2], 750 nM; in assay [3], 11 nM; in assay [4] it was 600 nM; in assay [5], 4.8 µM; in assay [6] it was 2 nM.

On to `CCC(C)COc1ccc(Br)cc1Cn1nc(CCC(=O)O)cc1C` (stereo not shown) [Example 10, 3-[1-(5-Bromo-2-(2-methyl-butoxy)-benzyl)-5-methyl-1H-pyrazol-3-yl]-propionic acid], for which the Kb in assay [1] turned out to be 70 nM; in assay [2], 360 nM; in assay [3], 12 nM; in assay [4], 100 nM; in assay [5], 4.2 µM; in assay [6] it was 2 nM.

On to `CCCCCCCOc1ccc(Br)cc1Cn1nc(CCC(=O)O)cc1C` [Example 15, 3-[1-(5-Bromo-2-heptyloxybenzyl)-5-methyl-1H-pyrazol-3-yl]-propionic acid], for which the Kb turned out to be 500 nM in assay [1]; 400 nM in assay [2]; 8100 nM in assay [4]; 2 µM in assay [5]; 500 nM in assay [6]. The “EP1 (FLIPR) Kb” value in assay [3] was “PAg”.

Turning to `Cc1cc(CCC(=O)NS(=O)(=O)C(F)(F)F)nn1Cc1cc(Br)ccc1OCC1CCCC1` [Example 18, N-(3-{1-[5-Bromo-2-(2-cyclopentylmethoxy)-benzyl]-5-methyl-1H-pyrazol-3-yl}-propionyl)-C,C,C-trifluoro-methanesulfonamide], the Kb in assay [1] stood at 250 nM; in assay [2] it was 400 nM; in assay [3] it was 14 nM; in assay [4], 300 nM; in assay [5] it was 3.1 µM; in assay [6] it was 2 nM.

As for `CCC(C)CCOc1ccc(Cl)cc1Cn1nc(CCC(=O)O)cc1C` (stereo not shown) [Example 22, 3-[1-(5-Chloro-2-(3-methylpentyloxy)benzyl)-5-methyl-1H-pyrazol-3-yl]-propionic acid], the Kb in assay [1] was 90 nM; in assay [2], 340 nM; in assay [3], 140 nM; in assay [4], 600 nM; in assay [5] it was 5.2 µM; in assay [6], less than 1 nM.

Turning to `Cc1cc(CCC(=O)O)nn1Cc1cc(Cl)ccc1OCC1CCCCC1` [Example 34, 3-[1-(5-Chloro-2-(cyclohexyl-methoxy)benzyl)-5-methyl-1H-pyrazol-3-yl]-propionic acid], the antagonist dissociation constant (Kb) in assay [1] was 200 nM; in assay [2] it was 240 nM; in assay [4], 2500 nM. Also, in assay [3], the “EP1 (FLIPR) Kb” value is “Ag”. Also, the “IP (FLIPR) Kb” value in assay [5] is recorded as “Ag”. In addition, in assay [6], the “TP (FLIPR) Kb” value is recorded as “Ag”.

With `Cc1cc(CCC(=O)O)nn1Cc1cc(Cl)ccc1OCC1(C(F)(F)F)CCC1` [Example 38, 3-[1-(5-Chloro-2-(1-trifluoromethylcyclobutylmethoxy)benzyl)-5-methyl-1H-pyrazol-3-yl]-propionic acid], the Kb in assay [1] turned out to be 600 nM; in assay [2] it was 1900 nM; in assay [3], 140 nM; in assay [4], 3600 nM; in assay [5] it was 6 µM; in assay [6], 8 nM.

With `CCC(CC)Oc1ccc(Cl)cc1Cn1nc(CCC(=O)O)cc1C` [Example 45, 3-[1-(5-Chloro-2-(1-ethylpropyloxy)benzyl)-5-methyl-1H-pyrazol-3-yl]-propionic acid], the Kb in assay [1] was 660 nM; in assay [2] it was 500 nM; in assay [3], 240 nM; in assay [5], 6.1 µM; in assay [6] it was 35 nM.

On to `COc1ccc(OCC2CC2)c(Cn2nc(CCC(=O)O)cc2C)c1` [Example 54, 3-[1-(2-Cyclopropylmethoxy-5-methoxy-benzyl)-5-methyl-1H-pyrazol-3-yl]-propionic acid], for which the Kb in assay [1] turned out to be 1000 nM; in assay [2], 1700 nM; in assay [3] it was 560 nM; in assay [4] it was 4700 nM; in assay [6], 1200 nM.
